Measurements: patent US8741843B2, “Compositions and methods for inducing angiogenesis” (priority 2006, dated 2014)
Entries after “also recorded” stand apart in the source; their conditions may differ.

Assays:
mouse ischemic hind limb [1] = assay: Histological assessment of angiogenesis in ischemic hind limb (von Willebrand Factor VIII staining); assay type: in vivo
Procedure: FIG. 8 is a graph depicting histological assessment of angiogenesis in the ischemic hind limb treated with ADOPep1. Mice were subjected to hind limb ligation and ADOPep administration as described in FIG. 7 and at the noted days (0, 7, 14 and 21 days) post hind limb ligation the mice were sacrificed and legs were embedded in paraffin. Sections were stained with anti von Willebrand factor and the number of Factor VIII positive vessels was determined using the Image Pro Plus software. Shown are the average blood vessel densities (of 10 individual microscopical fields per sample) expressed as number of capillaries per millimeter squared in histological sections of mouse hind limb ischemia treated with ADOPep1.
FIGS. 9a-b are microscopical images of histological sections subjected to von Willebrand Factor immuno-staining of mouse hind limb ischemia 21 days following injection of ADOPep1 (FIG. 9a) or PBS (FIG. 9b). […]
Limbs from mice treated with ADOPep 1, 3 or control mice injected with PBS were sacrificed at 7, 14 and 21 days post operation. […] Vessel densities were expressed as capillaries per millimeter squared. To obtain the average vessel number per cross-section area, a minimum of ten individual fields were sampled, and Image Pro-Plus (MediaCybernetics, Silver spring, MD, USA) was used to measure the counted area. The number of Factor VIII positive vessels was counted.

[2] = system: GRP78 in mouse ischemic hind limb; assay: GRP78-positive cells in ischemic hind limb sections; assay type: in vivo; conditions: 1 μg/mice, 7 to 14 days post ligation, vs PBS
Procedure: FIG. 21 is a bar graph depicting the mean number of GRP78-positive (GRP78+) cells per area in hind limb ischemia treated with ADOPep1 as a function of the days post induction of ischemia. Mice were subjected to hind limb ligation (the ischemic model) and after one day the mice were injected with either 1 μg/mice of ADOPep1, or 50 μl of PBS as control. The number of GRP78 positive cells was determined in histological sections prepared from ligated hind limbs (injected with ADOPep1 or PBS) of mice sacrificed at 7, 14 or 21 days post ischemia induction or normal untreated (non-ischemic) hind limbs.

mouse ischemic hind limb [3] = assay: Apoptotic cells in ischemic hind limb sections; assay type: in vivo; conditions: 1 μg/mice, 7 days post ligation, vs PBS
Procedure: FIG. 22 is a bar graph depicting the number of apoptotic cells per field in ischemic hind limb treated with ADOPep1 as a function of days after ischemia induction. Mice were subjected to hind limb ligation and PBS or ADOpep1 injection as described in the description of FIG. 21, hereinabove, and the number of apoptotic cells per microscopical filed was determined in histological sections prepared from either ligated and ADopep or PBS treated hind limbs of mice sacrificed at 7, 14 or 21 days post ischemia induction or from normal non-ischemic hind limbs.

[4] = system: endothelial cells (HUVEC); assay: Binding of biotinylated ADOPep to endothelial cells by FACS; parameters: species or system human
Procedure: FIG. 3 is a FACS analysis depicting the binding (in percentages) of biotinylated ADOPep1 (ADOPep1^Biot), an ADAM15 derived peptide (SEQ ID NO:2), to endothelial cells (EC) under normoxia. Biotinylated ADOPep1 at 0.05, 0.5 and 5 microgram/ml (μg/ml) were added to endothelial cells.
FIG. 4 is a FACS analysis depicting the binding (in total counts) of Biotinylated ADOPep1 to endothelial cells under normoxia and hypoxia conditions. […] X axis—Intensity of binding.
Human umbilical endothelial cells (HUVEC) were harvested by trypsin and 100,000 cells per sample were suspended in PBS+5% FCS+0.1% Na azide. Endothelial cells were either exposed for 5 hours to hypoxia or remained under normoxia conditions. Cells were stained for 2 hours on ice in dark with 0.05, 0.5, 5 μg/100,000 cells biotinylated ADOPeps. The cells were then washed twice with PBS, following which the cells were stained for 30 minutes with FITC-labeled Streptavidin (Jackson ImmunoResearch Laboratories, PA, USA). After washing, samples were analyzed using a fluorescence activated cell sorter (FACScan Beckton Dickinson, Calif., USA).

endothelial cells [5] = assay: CoCl2-induced apoptosis of endothelial cells (Annexin-FITC/PI FACS); assay type: cell-based, human; conditions: normoxia, 100 micromolar per 100,000 cells CoCl2, 10 ng/ml peptide 24 hours
Procedure: FIGS. 33a-f are representative FACS analyses depicting a specific inhibition of hypoxia-induced apoptosis of endothelial cells by ADOPep1. Endothelial cells in Petri dishes were incubated for 24 hours with 5% FCS in supplement-free endothelial cell growth medium under normoxia (FIGS. 33a and d), exposed to 24 hours hypoxia (Figures c and f) or incubated under normoxia with 100 micromolar per 100,000 cells CoCl2 (FIGS. 33b and e), in the absence (FIGS. 33a-c) or presence (FIGS. 33d-f) of 10 ng/ml Adopep1 peptide (for 24 hours). Cells were trypsinized and immediately re-suspended in PBS with 5% FCS and 0.1% Na-azide. Samples containing 100,000 cells were tested for apoptosis using the Annexin-FITC (X axis) and propidium iodide (Y axis) kit (Bender Medsystems, Vienna, Austria), according to manufacturer's instructions. Results were analyzed by FACScan (Beckton Dickinson).
FIG. 34 is a histogram depicting the FACS results of the experiments described in FIGS. 33a-f. Data represents average±SD of 2 experiments.

endothelial cells [6] = assay: Inhibition of binding of biotinylated ADOPep1 to endothelial cells by motif peptides; parameters: species or system human; conditions: normoxia, peptides 0.01, 0.1 or 1 ng/ml, ADOPep1^Biot 2 μg/ml
Procedure: FIG. 23 is a graph depicting the inhibition of binding of ADOPep1^Biot (2 μg/ml) to endothelial cells by specific peptides corresponding to conserved motifs from the ADOPeps. Endothelial cells were incubated for 2 hours under normoxia conditions in the presence of increasing concentrations (0.01, 0.1 or 1 ng/ml) of peptides having the amino acid sequences corresponding to Motif A (HWRRP; SEQ ID NO:7), Motif B (HWRRA; SEQ ID NO:8), Motif C (AHLLP; SEQ ID NO:6) or non-biotinylated ADOPep1 (SEQ ID NO:2) and then were incubated for 1 hour with biotinylated ADOPep1 (2 μg/ml) and the binding of biotinylated ADOPep1 to endothelial cells was determined using HRP-streptavidin.

## HWRRAHLLPRLP [ADOPep1, ADAM15 derived peptide, amino acids 286-297 of the metalloprotease domain]
Mouse ischemic hind limb [1]; 0.1 μg per mouse, days 7, 14, 21, vs PBS
  blood vessel density (number of blood vessels per area): significant increase (p<0.05) in the number of blood vessels; also recorded: significant increase in the blood vessel density
Mouse ischemic hind limb [1]; 21 days following injection, vs PBS
  von Willebrand Factor staining of small vessels: higher von Willebrand Factor Positive stained small vessels; also recorded: significantly higher von Willebrand Factor staining of small vessels
[2]
  mean number of GRP78 positive cells: significantly increased
[2]; listed as Adopep1
  mean number of GRP78 positive cells: more significant increase in mean number of GRP78 positive cells
Mouse ischemic hind limb [3]
  number of apoptotic cells per field: significant decrease
Mouse ischemic hind limb [3]; listed as ADoPep1
  number of apoptotic cells per field: dramatically decreased
[4]; 5 micrograms per 100,000 cells
  binding to endothelial cells under hypoxia versus normoxia: increase in binding; also recorded: increased under hypoxia
[4]; hypoxia 5 hours, 5 μg/ml
  percent binding of biotinylated ADOPep1 to endothelial cells: about 85%
[4]; normoxia, maximal at 5 μg/ml
  percent binding of biotinylated ADOPep1 to endothelial cells: about 62%
Endothelial cells [5]
  effect on CoCl2 induced apoptosis: no effect on apoptosis induced by CoCl2; also recorded: not the CoCl2 induced apoptosis
Endothelial cells [5]; listed as AdoPep1
  effect on CoCl2 induced apoptosis: did not inhibit apoptosis of endothelial cells exposed to the apoptotic inducer Cobalt-Chloride

## HWRRP [Motif A, 5 amino acid motif peptide]
Endothelial cells [6]
  inhibition of the binding of ADOPep1^Biot to endothelial cells: significant inhibition
